Assay results reported in publication PMC12464334, “Reprogramming of cancer metabolism via photoresponsive nano-PROTAC enhances pyroptosis-mediated immunotherapy” (Signal Transduction and Targeted Therapy, 2025).
Read-outs that look alike come from different tables or passages of the source.

Assays:
4T1 cells [1] = experiment: Intracellular ROS generation (DCFH-DA); type: cell-based, murine; conditions: 1 μM, 12 h, +L (40 mW, 500 s), hypoxia 1% O2, DCFH-DA
Procedure: Diacetyldichlorofluorescein (DCFH-DA; Cat. No. 4091-99-0, Sigma Aldrich) was used to detect intracellular ROS. […] The cells were then incubated with DCFH-DA for 30 min and subsequently exposed to photoirradiation for 500 s at a power of 40 mW. NIRF images were captured via CLSM.

[2] = system: orthotopic 4T1 TNBC tumor; experiment: Tumor inhibition in orthotopic TNBC mouse model; type: in vivo; conditions: for complete regression (CR), mice with CR / mice in group: i.v. equivalent 5 mg/kg VPF, n = 5
Procedure: BL imaging was conducted every 4 days following the intraperitoneal injection of D-luciferin. The tumor volumes and body weights were measured every 2 days. Mice with tumor volumes exceeding 500 mm^3 were considered deceased.

[3] = set-up: method as in doi:10.1016/j.dyepig.2020.108598; conditions: reference value used for calculation; cited from earlier work
Cat-D = molecular target: T1, Cat-D (Homo sapiens, UniProt P07339); experiment: Enzymatic cleavage by Cat-D; type: biochemical; conditions: pH 5.5 MES buffer, 37 °C, LC/MS
T1 construct: purchased R&D Systems 1014-AS
Procedure: (§1) AVPF and ANanoTAC represent the absorbance at the excitation wavelength (671 nm), whereas SVPF and SNanoTAC denote the slopes of the absorbance intensity over time. […] The cleavage rate of each sample was calculated by comparing the peak area to that of an equivalent amount of NanoTAC prior to enzyme incubation. The resulting data were plotted, and kcat/KM was determined via Prism 10 software (GraphPad).

[4] = system: orthotopic 4T1 TNBC tumor; conditions: tumors on day 3, flow cytometry, n = 5
Procedure: Following treatment of the TNBC mouse model described above, tumor tissues were collected on day 3 for immune cell population analyses. Single cells were isolated from the tumor samples via a tumor dissociation kit (Cat. No. 130-096-730; Miltenyi Biotechnology). An equal number of cells were incubated with FcBlock (Cat. No. 553142, BD Biosciences) for 5 min to prevent nonspecific IgG binding and then stained with appropriate antibodies to identify the populations of CRT-positive tumor cells (CD45^−CRT^+), mature DCs, CTLs, and regulatory T cells. As in the coculture study, HMGB1 and HSP70 in the tumor supernatants were assessed by western blot, while IL-18, IL-1β, TNF-α, IFN-γ, and IL-10 were measured via ELISA kits.

[5] = molecular target: T2, matrix metalloproteinase-9 (MMP-9) (Homo sapiens, UniProt P14780); experiment: Enzymatic cleavage by MMP-9; type: biochemical; conditions: pH 5.5 MES buffer, 37 °C, LC/MS
T2 construct: purchased R&D Systems 911-MP
Procedure: as §1

rechallenged 4T1 TNBC = conditions: day 15 after tumor rechallenge, ELISA, n = 3
Procedure: Sixteen days post-treatment, TNBC mice were inoculated with 4T1 cells (2 × 10^5 cells per mouse) into the fourth mammary fat pad opposite the primary TNBC site. Rechallenged tumor volumes were measured every 2 days. Fifteen days after tumor rechallenge, the population of splenic Tem cells (CD3^+; CD8^+; CD44^+ [Cat. No. 103016, Biolegend]; CD62L^low [Cat. No. 104407, Biolegend]) was analyzed via flow cytometry. Finally, the serum levels of IFN-γ, IL-6, and TNF-α were quantified via ELISA.

Cat-L = molecular target: T3, Cat-L (Homo sapiens, UniProt P07711); experiment: Enzymatic cleavage by Cat-L; type: biochemical; conditions: pH 5.5 MES buffer, 37 °C, LC/MS
T3 construct: purchased R&D Systems 952-CY
Procedure: as §1

HK2 = molecular target: T4, HK2 (Mus musculus, UniProt O08528); experiment: TPD analysis: intracellular HK2 level; type: cell-based, murine; conditions: for time-dependent HK2 expression after washout: TNBC cells, 1 µM, 12 h treatment then washout, n = 3
T4 construct: endogenous in cells; host or cells: 4T1 cells
T4 sequence (O08528 1-917): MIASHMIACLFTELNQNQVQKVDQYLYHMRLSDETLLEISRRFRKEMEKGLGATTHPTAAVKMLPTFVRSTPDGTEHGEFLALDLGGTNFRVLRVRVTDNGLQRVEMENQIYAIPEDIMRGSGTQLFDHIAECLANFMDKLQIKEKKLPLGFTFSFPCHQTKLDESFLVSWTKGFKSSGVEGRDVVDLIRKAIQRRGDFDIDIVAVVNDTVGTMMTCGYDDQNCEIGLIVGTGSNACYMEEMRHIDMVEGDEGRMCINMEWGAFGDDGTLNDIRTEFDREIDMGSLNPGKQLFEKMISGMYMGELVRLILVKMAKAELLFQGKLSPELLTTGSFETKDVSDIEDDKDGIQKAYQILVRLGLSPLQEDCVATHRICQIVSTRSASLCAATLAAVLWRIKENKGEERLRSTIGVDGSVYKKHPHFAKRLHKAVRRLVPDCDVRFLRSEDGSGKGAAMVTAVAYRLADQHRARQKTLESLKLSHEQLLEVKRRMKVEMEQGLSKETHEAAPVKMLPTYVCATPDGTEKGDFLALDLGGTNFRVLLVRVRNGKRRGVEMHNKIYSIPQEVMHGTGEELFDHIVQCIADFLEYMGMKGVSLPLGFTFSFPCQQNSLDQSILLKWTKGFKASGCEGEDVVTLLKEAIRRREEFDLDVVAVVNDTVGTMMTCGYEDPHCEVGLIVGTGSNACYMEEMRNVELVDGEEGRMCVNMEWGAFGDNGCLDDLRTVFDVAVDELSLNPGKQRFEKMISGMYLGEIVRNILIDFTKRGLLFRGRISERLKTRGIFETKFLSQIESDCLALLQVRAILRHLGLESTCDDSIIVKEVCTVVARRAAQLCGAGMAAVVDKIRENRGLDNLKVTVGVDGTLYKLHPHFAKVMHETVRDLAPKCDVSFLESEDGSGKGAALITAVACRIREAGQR

4T1 cells [6] = conditions: without photoirradiation, absence (migration) or presence (invasion) of collagen, n = 5
Cat-B = molecular target: T5, Cat-B (Homo sapiens, UniProt P07858); experiment: Enzymatic cleavage by Cat-B (LC/MS, HPLC); type: biochemical; conditions: pH 5.5 MES buffer, 37 °C
T5 construct: purchased R&D systems 953CY
Procedure: (§2) AVPF and ANanoTAC represent the absorbance at the excitation wavelength (671 nm), whereas SVPF and SNanoTAC denote the slopes of the absorbance intensity over time. […] The resulting data were plotted, and kcat/KM was determined via Prism 10 software (GraphPad).

caspase-3 (CASP3) = molecular target: T6, caspase-3 (CASP3) (Homo sapiens, UniProt P42574); experiment: Enzymatic cleavage by caspase-3; type: biochemical; conditions: pH 5.5 MES buffer, 37 °C, LC/MS
T6 construct: purchased R&D Systems 707-C3/CF
T6 sequence (P42574 29-175 limits assumed): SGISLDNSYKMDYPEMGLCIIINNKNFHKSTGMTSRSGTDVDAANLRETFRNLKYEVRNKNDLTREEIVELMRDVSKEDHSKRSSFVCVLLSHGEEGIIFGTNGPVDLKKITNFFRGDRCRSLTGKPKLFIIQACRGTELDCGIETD
T6 sequence (P42574 176-277 limits assumed): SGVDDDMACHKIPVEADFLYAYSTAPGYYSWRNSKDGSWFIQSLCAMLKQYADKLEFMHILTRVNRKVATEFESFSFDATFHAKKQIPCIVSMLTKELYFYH
Procedure: as §1

Cat-E = molecular target: T7, Cat-E (Homo sapiens, UniProt P14091); experiment: Enzymatic cleavage by Cat-E; type: biochemical; conditions: pH 5.5 MES buffer, 37 °C, LC/MS
T7 construct: purchased R&D Systems 1294-AS
T7 sequence (P14091 54-396): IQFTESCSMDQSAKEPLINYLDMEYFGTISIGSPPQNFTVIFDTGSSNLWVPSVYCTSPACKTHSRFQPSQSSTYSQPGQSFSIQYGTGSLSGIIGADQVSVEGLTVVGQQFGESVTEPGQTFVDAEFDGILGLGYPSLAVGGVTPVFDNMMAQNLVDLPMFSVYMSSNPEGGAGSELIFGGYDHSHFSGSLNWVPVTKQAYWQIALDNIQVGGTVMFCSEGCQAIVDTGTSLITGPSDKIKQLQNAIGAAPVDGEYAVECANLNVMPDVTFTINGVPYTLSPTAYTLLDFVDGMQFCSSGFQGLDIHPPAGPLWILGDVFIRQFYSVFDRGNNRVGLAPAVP
Procedure: as §1

[7] = ROS generation, DPBF bleaching assay under 671 nm laser; type: physicochemical; conditions: 671 nm laser 40 mW, calculated relative to VPF, n = 5
Procedure: The morphology in distilled water was observed via transmission electron microscopy (TEM; Philips). UV‒vis and fluorescence spectra were measured via a UV‒vis spectrometer (Agilent Technologies) and a fluorescence spectrometer (Hitachi), respectively. ROS generation was quantified via a bleaching assay using 1,3-diphenylisobenzofuran (DPBF; Cat. No. 105481; Sigma Aldrich).
as §2

T2 sequence (P14780 94-707): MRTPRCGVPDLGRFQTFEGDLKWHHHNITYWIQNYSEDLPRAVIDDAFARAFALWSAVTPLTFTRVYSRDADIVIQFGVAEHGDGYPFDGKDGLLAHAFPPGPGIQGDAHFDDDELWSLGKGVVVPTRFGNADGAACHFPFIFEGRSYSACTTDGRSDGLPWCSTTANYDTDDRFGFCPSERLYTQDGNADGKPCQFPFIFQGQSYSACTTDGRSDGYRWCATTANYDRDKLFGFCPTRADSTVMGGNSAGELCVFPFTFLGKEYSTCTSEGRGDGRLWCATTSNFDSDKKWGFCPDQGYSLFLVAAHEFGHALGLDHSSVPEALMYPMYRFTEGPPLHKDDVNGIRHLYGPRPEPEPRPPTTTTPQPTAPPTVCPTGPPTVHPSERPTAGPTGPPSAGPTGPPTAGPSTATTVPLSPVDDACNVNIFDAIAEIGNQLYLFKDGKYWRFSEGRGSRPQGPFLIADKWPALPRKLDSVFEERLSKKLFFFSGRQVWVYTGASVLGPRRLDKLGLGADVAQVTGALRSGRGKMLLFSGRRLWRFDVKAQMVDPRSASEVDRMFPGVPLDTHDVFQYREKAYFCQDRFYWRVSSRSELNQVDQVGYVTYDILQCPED
T3 sequence (P07711 114-333): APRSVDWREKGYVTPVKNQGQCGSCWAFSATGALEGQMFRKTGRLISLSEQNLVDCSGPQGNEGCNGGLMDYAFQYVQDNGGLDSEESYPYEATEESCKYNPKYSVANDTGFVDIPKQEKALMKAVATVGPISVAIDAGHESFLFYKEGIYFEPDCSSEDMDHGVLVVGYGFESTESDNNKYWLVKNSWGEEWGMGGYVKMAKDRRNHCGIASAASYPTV
T1 sequence (P07339 65-412): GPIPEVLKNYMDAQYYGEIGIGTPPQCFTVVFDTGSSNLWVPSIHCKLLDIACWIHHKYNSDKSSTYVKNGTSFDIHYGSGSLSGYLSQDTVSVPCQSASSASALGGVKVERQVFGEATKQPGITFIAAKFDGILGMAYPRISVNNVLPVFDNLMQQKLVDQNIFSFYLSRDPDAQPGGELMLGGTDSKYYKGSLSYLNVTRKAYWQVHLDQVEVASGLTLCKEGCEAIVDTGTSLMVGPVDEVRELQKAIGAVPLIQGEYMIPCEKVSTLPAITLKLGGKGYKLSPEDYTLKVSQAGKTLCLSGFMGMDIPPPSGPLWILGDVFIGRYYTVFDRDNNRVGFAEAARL

verteporfin [VPF, reference compound]
reduction of ROS production under hypoxia compared with normoxia (4T1 cells [1]): 79.1% | complete regression (CR), mice with CR / mice in group ([2]; +L (200 mW, 15 min)): 0/5 | ROS quantum yield (Φ) [3]: 0.78

VPF-KRRPIYPALAK-lonidamine [NanoTAC, supramolecular self-assembly of drug conjugates: HK2-targeting PROTAC, cathepsin B-cleavable peptide KRR and photosensitizer verteporfin]
cleavage by Cat-D (Cat-D): no cleavage behavior | intratumoral Treg population, NanoTAC (+L) relative to NanoTAC (−L) [4]: 72.01% | intratumoral Treg population, NanoTAC (+L) relative to VPF (+L) [4]: 44.81% | cleavage by MMP-9 [5]: no cleavage behavior | serum IFN-γ, fold of NanoTAC (+L)-treated CR mice over naive mice (rechallenged 4T1 TNBC): 1.33 fold | serum IL-6, fold of NanoTAC (+L)-treated CR mice over naive mice (rechallenged 4T1 TNBC): 1.32 fold | serum TNF-α, fold of NanoTAC (+L)-treated CR mice over naive mice (rechallenged 4T1 TNBC): 1.4 fold | cleavage by Cat-L (Cat-L): no cleavage behavior | intracellular HK2 level after treatment (HK2; 4T1 cells, 1 μM, 12 h, anti-HK2 staining, CLSM): significantly decreased intracellular HK2 levels | time-dependent HK2 expression after washout (HK2): sustained degradation of the target protein | migratory and invasive phenotypes (4T1 cells [6]): reduced migratory and invasive phenotypes | reduction of ROS production under hypoxia compared with normoxia (4T1 cells [1]): 36.1% | cleavage in presence of Cat-B with irreversible cysteine protease inhibitor (Cat-B; Cat-B with Z-FA-FMK, LC/MS): no detectable cleavage | catalytic efficiency (kcat/KM) (Cat-B; NanoTAC 5-80 μM, 5 μg Cat-B, HPLC): 27,898 M^−1S^−1 | time for conversion into PROTAC and lysine-conjugated VPF (K-VPF) with Cat-B (Cat-B; LC/MS): ≤ 1 h | survival of TNBC mice ([2]; +L, n = 5, log-rank test): significantly prolonged survival | complete regression (CR), mice with CR / mice in group ([2]; +L (200 mW, 15 min)): 3/5 | complete regression (CR), mice with CR / mice in group ([2]; −L): 0/5 | cleavage by CASP3 (caspase-3 (CASP3)): no cleavage behavior | cleavage by Cat-E (Cat-E): no cleavage behavior | ROS quantum yield (Φ) [7]: ≈ 0.7823

O=C(O)c1nn(Cc2ccc(Cl)cc2Cl)c2ccccc12 [lonidamine, reference compound]
time-dependent HK2 expression after washout (HK2): initial reduction in the intracellular HK2 level followed by eventual regeneration
